Laboratory results reported in ChEMBL document CHEMBL1144756, “Isoprenoid glycosides from Liriosma ovata” (2008).
≈ marks a conversion by molar mass, not a printed value.

Experiments:
Format in all cases: functional
[1] = tested on: Pseudomonas aeruginosa; test: Antibacterial activity against Pseudomonas aeruginosa ATCC 9027 after 24 hrs by broth microdilution method; conditions: ATCC 9027, 24 h
[2] = tested on: Staphylococcus aureus; test: Antibacterial activity against Staphylococcus aureus ATCC 6538 after 24 hrs by broth microdilution method; conditions: ATCC 6538, 24 h
[3] = tested on: Mus musculus; test: Antiinflammatory activity against corton oil-induced ear edema in mouse

Row | MIC [1] [µg/mL] | MIC [2] [µg/mL] | Compound | ID50 [3] [microg/cm2] | MBC [1] [µg/mL] | MBC [2] [µg/mL]
1 | > 20 | 4 (≈ 7.68 µM) | CC(=O)/C=C/[C@@]1(O)[C@H](C)C[C@H](O[C@@H]2O[C@H](CO[C@@H]3OC[C@](O)(CO)[C@H]3O)[C@@H](O)[C@H](O)[C@H]2O)CC1(C)C | – | – | –
2 | > 20 | > 20 | CC(C)O[C@@H]1O[C@H](CO[C@@H]2OC[C@](O)(CO)[C@H]2O)[C@@H](O)[C@H](O)[C@H]1O | – | – | –
3 | – | – | COc1ccc2c(c1)c(CC(=O)O)c(C)n2C(=O)c1ccc(Cl)cc1 [INDOMETHACIN] | 93 | – | –
4 | 4 (≈ 9.21 µM) | 2 (≈ 4.6 µM) | CC(C)(O)[C@@H]1CC[C@]2(C)[C@@H](O[C@@H]3O[C@H](CO)[C@@H](O)[C@H](O)[C@H]3O)C[C@@H](O)[C@](C)(O)[C@H]2C1 | – | 4 (≈ 9.21 µM) | 4 (≈ 9.21 µM)
